Patent publication US11123355B2, “Antiviral benzyl-amine phosphodiamide compounds” (Merck Sharp & Dohme Corp., priority 2016, dated 2021)
Where two headings read alike, the source gives them in different places.

Test system: HIV-1 (H9/IIB strain)
Assay: Multiple Round HIV-1 Infection Assay (Viking Assay) in MT4-GFP cells
Assay type: cell-based
Details: inhibition of reproductive ratio R0
Method in brief: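 MT-4 cells with tat/rev-dependent GFP reporter infected overnight with virus at MOI ~0.01, then incubated in RPMI with 10% or 50% normal human serum with 10-point 3-fold dilutions (typically 8.4 μM–0.42 nM final). Green cells counted at ~48 and ~72 h to give R0; IC50 from 4-parameter fit of R0 inhibition.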

[1] = MT4-GFP cells infected with HIV-1, 10% normal human serum, read-out: Viking, IC50 (10% NHS)
[2] = MT4-GFP cells infected with HIV-1, 50% normal human serum, read-out: Viking, IC50 (50% NHS)
[3] = Human immunodeficiency virus 1, MT4-GFP cells infected with HIV-1, 10% normal human serum, read-out: Viking, IC50 (10% NHS)
[4] = Human immunodeficiency virus 1, MT4-GFP cells infected with HIV-1, 50% normal human serum, read-out: Viking, IC50 (50% NHS)

Row | Molecule | IC50 [1] | IC50 [2] | IC50 [3] | IC50 [4]
1 | CCCOC(=O)C(C)(C)N[P@@](=O)(CO[C@H](C)Cn1cnc2c(N)ncnc21)N[C@@H](C)c1ccc(OC)cc1 [Example 14B, propyl 2-(((R)-((((R)-1-(6-amino-9H-purin-9-yl)propan-2-yl)oxy)methyl)(((S)-1-(4-methoxyphenyl)ethyl)amino)phosphoryl)a-mino)-2-methylpropanoate and propyl 2-(((S)-((((R)-1-(6-amino-9H-purin-9-yl)propan-2-yl)oxy)methyl)(((S)-1-(4-methoxyphenyl)ethyl)amino)phosphoryl)a-mino)-2-methylpropanoate] | 52 nM | 280 nM | – | –
2 | CCCOC(=O)C(C)(C)NP(=O)(CO[C@H](C)Cn1cnc2c(N)ncnc21)N(C)Cc1ccc(C(C)C)cc1 (stereo partly drawn) [Example 32A, propyl 2-(((R)-((((R)-1-(6-amino-9H-purin-9-yl)propan-2-yl)oxy)methyl)((4-isopropylbenzyl)(methyl)amino)phos-phoryl)amino)-2-methylpropanoate and propyl 2-(((S)-((((R)-1-(6-amino-9H-purin-9-yl)propan-2-yl)oxy)methyl)((4-isopropylbenzyl)(methyl)amino)phos-phoryl)amino)-2-methylpropanoate] | 1.7 nM | 6.7 nM | – | –
3 | CCCOC(=O)C(C)(C)NP(=O)(CO[C@H](C)Cn1cnc2c(N)ncnc21)N[C@@H](C)c1ccc(C(F)(F)F)cc1 (stereo partly drawn) [Example 11B, propyl 2-(((R)-((((R)-1-(6-amino-9H-purin-9-yl)propan-2-yl)oxy)methyl)(((S)-1-(4-(trifluoromethyl)phenyl)ethyl)amino)phos-phoryl)amino)-2-methylpropanoate and propyl 2-(((S)-((((R)-1-(6-amino-9H-purin-9-yl)propan-2-yl)oxy)methyl)(((S)-1-(4-(trifluoromethyl)phenyl)ethyl)amino)phosphoryl)amino)-2-methylpropanoate] | 16 nM | 84 nM | – | –
4 | propyl 2-(((R)-((((R)-1-(6-amino-9H-purin- 9-yl)propan-2-yl)oxy)methyl)((3- fluorobenzyl)amino)phosphoryl)amino)-2- methylpropanoate and propyl 2-(((S)-((((R)-1-(6-amino-9H-purin- 9-yl)propan-2-yl)oxy)methyl)((3- fluorobenzyl)amino)phosphoryl)amino)-2- methylpropanoate [Example 8A] | 110 nM | 680 nM | – | –
5 | isopropyl 2-(((R)-((((R)-1-(6-amino-9H- purin-9-yl)propan-2-yl)oxy)methyl)((2-(4- chlorophenyl)propan-2- yl)amino)phosphoryl)amino)-2- methylpropanoate and isopropyl 2-(((S)-((((R)-1-(6-amino-9H- purin-9-yl)propan-2-yl)oxy)methyl)((2-(4- chlorophenyl)propan-2- yl)amino)phosphoroyl)amino)-2- methylpropanoate [Example 36B] | 200 nM | 1100 nM | – | –
6 | CCCOC(=O)C(C)(C)NP(=O)(CO[C@H](C)Cn1cnc2c(N)ncnc21)N[C@H](C)c1ccc(Cl)cc1 (stereo partly drawn) [Example 1A, propyl 2-(((R)-((((R)-1-(6-amino-9H-purin-9-yl)propan-2-yl)oxy)methyl(((R)-1-(4-chlorophenyl)ethyl)amino)phosphoryl)amino)-2-methylpropanoate and propyl 2-(((S)-((((R)-1-(6-amino-9H-purin-9-yl)propan-2-yl)oxy)methyl)(((R)-1-(4-chlorophenyl)ethyl)amino)phosphoryl)amino)-2-methylpropanoate] | – | – | 120 nM | 710 nM
7 | propyl 2-(((R)-((((R)-1-(6-amino-9H-purin- 9-yl)propan-2-yl)oxy)methyl)(((R)-2,2,2- trifluoro-1-(p- tolyl)ethyl)amino)phosphoryl)amino)-2- methylpropanoate and propyl 2-(((S)-((((R)-1-(6-amino-9H-purin- 9-yl)propan-2-yl)oxy)methyl)(((R)-2,2,2- trifluoro-1-(p- tolyl)ethyl)amino)phosphoryl)amino)-2- methylpropanoate [Example 26B] | 34 nM | 200 nM | – | –
8 | CCCOC(=O)C(C)(C)NP(=O)(CO[C@H](C)Cn1cnc2c(N)ncnc21)N[C@@H](C)c1ccc(Cl)cc1 (stereo partly drawn) [Example 13B, propyl 2-(((R)-((((R)-1-(6-amino-9H-purin-9-yl)propan-2-yl)oxy)methyl)(((S)-1-(4-chlorophenyl)ethyl)amino)phosphoryl)ami-no)-2-methylpropanoate and propyl 2-(((S)-((((R)-1-(6-amino-9H-purin-9-yl)propan-2-yl)oxy)methyl)(((S)-1-(4-chlorophenyl)ethyl)amino)phosphoryl)ami-no)-2-methylpropanoate] | 73 nM | 310 nM | – | –
9 | propyl 2-(((R)-((((R)-1-(6-amino-9H-purin- 9-yl)propan-2-yl)oxy)methyl)((4- isopropylbenzyl)amino)phosphoryl)amino)- 2-methylpropanoate and propyl 2-(((S)-((((R)-1-(6-amino-9H-purin- 9-yl)propan-2-yl)oxy)methyl)((4- isopropylbenzyl)amino)phosphoryl)amino)- 2-methylpropanoate [Example 5B] | 48 nM | 240 nM | – | –
10 | CC(C)OC(=O)C(C)(C)NP(=O)(CO[C@H](C)Cn1cnc2c(N)ncnc21)N[C@H](C)c1ccc(OC(F)(F)F)cc1 (stereo partly drawn) [Example 34A, isopropyl 2-(((R)-((((R)-1-(6-amino-9H-purin-9-yl)propan-2-yl)oxy)methyl)(((R)-1-(4-(trifluoromethoxy)phenyl)ethyl)amino)phos-phoryl)amino)-2-methylpropanoate and isopropyl 2-(((S)-((((R)-1-(6-amino-9H-purin-9-yl)propan-2-yl)oxy)methyl)(((R)-1-(4-(trifluoromethoxy)phenyl)ethyl)amino)phos-phoryl)amino)-2-methylpropanoate] | 760 nM | 4200 nM | – | –
11 | propyl 2-(((R)-((((R)-1-(6-amino-9H-purin- 9-yl)propan-2-yl)oxy)methyl)(((R)-1-(p- tolyl)ethyl)amino)phosphoryl)amino)-2- methylpropanoate and propyl 2-(((S)-((((R)-1-(6-amino-9H-purin- 9-yl)propan-2-yl)oxy)methyl)(((R)-1-(p- tolyl)ethyl)amino)phosphoryl)amino)-2- methylpropanoate [Example 16A] | 83 nM | 440 nM | – | –
12 | CCCOC(=O)C(C)(C)NP(=O)(CO[C@H](C)Cn1cnc2c(N)ncnc21)N(C)[C@H](C)c1ccc(Cl)cc1 (stereo partly drawn) [Example 2A, propyl 2-(((R)-((((R)-1-(6-amino-9H-purin-9-yl)propan-2-yl)oxy)methyl(((R)-1-(4-chlorophenyl)ethyl)(methyl)amino)phosphonyl)amino)-2-methylpropanoate and propyl 2-(((S)-((((R)-1-(6-amino-9H-purin-9-yl)propan-2-yl)oxy)methyl)(((R)-1-(4-chlorophenyl)ethyl)(methyl)amino)phosphoryl)amino)-2-methylpropanoate] | – | – | 43 nM | 130 nM
13 | CCCOC(=O)C(C)(C)NP(=O)(CO[C@H](C)Cn1cnc2c(N)ncnc21)N[C@H](C)c1ccccc1OC (stereo partly drawn) [Example 20A, propyl 2-(((R)-((((R)-1-(6-amino-9H-purin-9-yl)propan-2-yl)oxy)methyl)(((R)-1-(2-methoxyphenyl)ethyl)amino)phosphoryl)a-mino)-2-methylpropanoate and propyl 2-(((S)-((((R)-1-(6-amino-9H-purin-9-yl)propan-2-yl)oxy)methyl)(((R)-1-(2-methoxyphenyl)ethyl)amino)phosphoryl)a-mino)-2-methylpropanoate] | 61 nM | 590 nM | – | –
14 | propyl 2-(((R)-((((R)-1-(6-amino-9H-purin- 9-yl)propan-2-yl)oxy)methyl)(((R)-1-(p- tolyl)ethyl)amino)phosphoryl)amino)-2- methylpropanoate and propyl 2-(((S)-((((R)-1-(6-amino-9H-purin- 9-yl)propan-2-yl)oxy)methyl)(((R)-1-(p- tolyl)ethyl)amino)phosphoryl)amino)-2- methylpropanoate [Example 16B] | 4.6 nM | 27 nM | – | –
15 | propyl 2-(((R)-((((R)-1-(6-amino-9H-purin- 9-yl)propan-2-yl)oxy)methyl)(((S)-1-(p- tolyl)ethyl)amino)phosphoryl)amino)-2- methylpropanoate and propyl 2-(((S)-((((R)-1-(6-amino-9H-purin- 9-yl)propan-2-yl)oxy)methyl)(((S)-1-(p- tolyl)ethyl)amino)phosphoryl)amino)-2- methylpropanoate [Example 18B] | 37 nM | 520 nM | – | –
16 | CCCOC(=O)C(C)(C)N[P@@](=O)(CO[C@H](C)Cn1cnc2c(N)ncnc21)N[C@@H](C)c1ccccc1OC [Example 17B, propyl 2-(((R)-((((R)-1-(6-amino-9H-purin-9-yl)propan-2-yl)oxy)methyl)(((S)-1-(2-methoxyphenyl)ethyl)amino)phosphoryl)a-mino)-2-methylpropanoate and propyl 2-(((S)-((((R)-1-(6-amino-9H-purin-9-yl)propan-2-yl)oxy)methyl)(((S)-1-(2-methoxyphenyl)ethyl)amino)phosphoryl)a-mino)-2-methylpropanoate] | 84 nM | 510 nM | – | –
